These results are taken from patent US11433052B2, “5-LOX and COX-2 inhibition for treatment in connection with blood-brain barrier dysfunction” (University of Kentucky Research Foundation, priority 2019, dated 2022).

In test [1] the test system is brain capillaries from pilocarpine-induced status epilepticus (SE) rats. Nature of the test: Texas Red leakage from capillary lumens, seizure-mediated capillary leakage in SE rats. Type of test: in vivo, rat. Particulars: 10 mg/kg LCF i.p., 7 injections; capillaries isolated 2 d after SE-induction with pilocarpine. Here is the method:
With reference to FIGS. 2A and 2B, the effect of dual LOX-COX inhibition on seizure-mediated capillary leakage was tested. Rats were treated with 10 mg/kg LCF (i.p., 7 injections). Capillaries were isolated 2 d after status epilepticus (SE)-induction with pilocarpine. Texas Red (TR) leakage from capillary lumens was monitored by confocal microscopy. Mannitol served as a positive control for barrier opening. (Hartz et al., 2012). Data includes mean±SEM (n=10 capillaries); arbitrary units (0-255). B) S100β ELISA (Millipore). Statistics: ***p<0.001 (ANOVA). […] With reference to FIGS. 4A and 4B, the effect of a combination of a LOX inhibitor and a COX inhibitor on seizure-mediated capillary leakage was tested. Rats were treated with zileuton (ZLT) and celecoxib (CEL) (5 mg/kg and 10 mg/kg; i.p., 7 injections). Capillaries were isolated 2 d after SE-induction with pilocarpine. Texas Red (TR) leakage from capillary lumens monitored by confocal microscopy (mannitol: positive control for barrier opening; Hartz et al., 2012). Data: mean±SEM (n=10 capillaries); arbitrary units (0-255).

In test [2] the test system is isolated rat brain capillaries. Nature of the test: Texas Red leakage assay, glutamate-mediated capillary leakage. Type of test: cell-based. Particulars: 100 μM glutamate with 100 μM LCF. As to the method:
With reference to FIGS. 1A-1C, the effect of dual LOX-COX inhibition on glutamate-mediated capillary leakage was tested. Isolated rat brain capillaries were exposed to 100 μM glutamate with or without 100 μM of the dual LOX/COX inhibitor, licofelone (LCF).

A further test concerns S100β. The experiment in a line: Serum S100β ELISA in SE rats. Type of test: in vivo, rat. Particulars: 7 injections, 2 d after SE-induction with pilocarpine. As to the method: With reference to FIGS. 2A and 2B, the effect of dual LOX-COX inhibition on seizure-mediated capillary leakage was tested. Rats were treated with 10 mg/kg LCF (i.p., 7 injections). Capillaries were isolated 2 d after status epilepticus (SE)-induction with pilocarpine. Serum levels of S100β were assessed by ELISA (Millipore). Statistics: ***p<0.001 (ANOVA). Data: mean±SEM. […] The effect of dual LOX-COX inhibition on seizure-mediated capillary leakage was further tested in rates treated with either 5 mg/kg or 10 mg/kg LCF (i.p., 7 injections). Capillaries were isolated 2 d after SE-induction with pilocarpine. Serum levels of S100β were assessed by ELISA (Millipore). […] With reference to FIGS. 4A and 4B, the effect of a combination of a LOX inhibitor and a COX inhibitor on seizure-mediated capillary leakage was tested. Rats were treated with zileuton (ZLT) and celecoxib (CEL) (5 mg/kg and 10 mg/kg; i.p., 7 injections). Capillaries were isolated 2 d after SE-induction with pilocarpine. Serum levels of S100β were assessed by ELISA (Millipore). Statistics: ***p<0.001 (ANOVA). Data: mean±SEM.

In the next test the test system is MMP-2. The experiment in a line: Western blot of MMP-2 protein expression in capillaries exposed to glutamate. In kind it is cell-based. Particulars: isolated rat brain capillaries, 100 μM glutamate with 100 μM LCF. Here is the method: (§1) With reference to FIGS. 1A-1C, the effect of dual LOX-COX inhibition on glutamate-mediated capillary leakage was tested. Isolated rat brain capillaries were exposed to 100 μM glutamate with or without 100 μM of the dual LOX/COX inhibitor, licofelone (LCF). […] FIG. 1A includes Western blots showing MMP-2 and MMP-9 protein expression in isolated rat brain capillaries exposed to 100 μM glutamate with or without LCF. β-Actin was used as protein loading control.
In general terms: A western blot detects proteins with antibodies after separation by electrophoresis.

Another test has as its system MMP-9. The experiment in a line: Western blot of MMP-9 protein expression in capillaries exposed to glutamate. In kind it is cell-based. The settings on record: isolated rat brain capillaries, 100 μM glutamate with 100 μM LCF. Here is the method:
as §1

Another test relates to MMP. Nature of the test: MMP activity in isolated capillaries exposed to glutamate. Type of test: cell-based, rat. Particulars: 100 μM glutamate with 100 μM LCF. Here is the method:
With reference to FIGS. 1A-1C, the effect of dual LOX-COX inhibition on glutamate-mediated capillary leakage was tested. Isolated rat brain capillaries were exposed to 100 μM glutamate with or without 100 μM of the dual LOX/COX inhibitor, licofelone (LCF). […] FIG. 1B is a bar graph illustrating MMP activity assessed in isolated capillaries exposed to 100 μM glutamate with or without LCF.

`CC1(C)Cc2c(-c3ccccc3)c(-c3ccc(Cl)cc3)c(CC(=O)O)n2C1` [licofelone]: in test [1], the “capillary leakage in SE rats (Texas Red leakage)” value is “prevents capillary leakage”. Moreover, the “glutamate-mediated capillary leakage (Texas Red leakage)” value is recorded as “reduced glutamate-mediated capillary leakage” in test [2] and “glutamate-mediated barrier leakage reduction” in test [2] (listed as LCF). The “capillary leakage as reflected by S100β levels in serum from SE rats, dose dependence” value with S100β (5 mg/kg or 10 mg/kg LCF i.p.) is listed as “inhibit capillary leakage in a dose-dependent manner”. Besides, in the test with S100β (10 mg/kg LCF i.p.), the “S100β levels in serum from SE rats” value was “reduces S100β levels”. The “MMP-2 protein levels (Western blot)” value with MMP-2 is “did not show increased protein levels”. In addition, the “MMP-9 protein levels (Western blot)” value in the test with MMP-9 was “did not show increased protein levels”. Further, the MMP activity entry in the test on MMP is reported as “did not show increased activity”.
